Results as given in patent publication US20230293460A1, “METHOD FOR TREATING DERMATITIS” (CHANG GUNG MEMORIAL HOSPITAL, LINKOU, priority 2020, published 2023).

Test system: dermatitis in the hands
Test: Example 4: middle-aged patient with dermatitis in the hands
Type: in vivo, human
Settings: given together: clobetasol ointment (0.025%) twice a day 21 days, desloratadine 5 mg once a day + hydroxyzine 25 mg twice a day 21 days, cyclosporine 100 mg twice a day 28 days; one patient

Structure (SMILES)	scaling and chronic inflammation
Clc1ccc2c(c1)CCc1cccnc1C2=C1CCNCC1 [desloratadine]	did not improve
OCCOCCN1CCN(C(c2ccccc2)c2ccc(Cl)cc2)CC1 (centres unmarked) [hydroxyzine]	did not improve
